Measured values as given in patent publication US12378248B2 (The United States of America, as represented by the …, priority 2018, dated 2025).
Like-named read-outs stand apart in the source and are kept apart here.

Tests used:
mA1AR = biological target: T1, mA1AR (Mus musculus, UniProt Q60612); test: Adenosine receptor binding, mA1AR
T1 sequence (Q60612 1-326): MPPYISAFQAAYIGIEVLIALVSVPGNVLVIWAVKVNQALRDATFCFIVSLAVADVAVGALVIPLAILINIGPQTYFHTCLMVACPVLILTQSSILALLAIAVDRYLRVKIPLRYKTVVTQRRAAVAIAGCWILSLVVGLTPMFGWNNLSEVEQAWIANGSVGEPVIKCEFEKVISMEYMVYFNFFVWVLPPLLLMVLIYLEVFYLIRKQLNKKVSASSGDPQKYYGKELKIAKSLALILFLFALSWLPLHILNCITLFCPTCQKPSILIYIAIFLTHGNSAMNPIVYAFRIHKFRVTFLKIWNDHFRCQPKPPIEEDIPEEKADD

mA3AR = biological target: T2, mA3AR (Mus musculus, UniProt Q61618); test: Adenosine receptor binding, mA3AR; conditions: (m); Ki; read-out: A3AR % inhibition or Ki (converted)
T2 sequence (Q61618 1-319): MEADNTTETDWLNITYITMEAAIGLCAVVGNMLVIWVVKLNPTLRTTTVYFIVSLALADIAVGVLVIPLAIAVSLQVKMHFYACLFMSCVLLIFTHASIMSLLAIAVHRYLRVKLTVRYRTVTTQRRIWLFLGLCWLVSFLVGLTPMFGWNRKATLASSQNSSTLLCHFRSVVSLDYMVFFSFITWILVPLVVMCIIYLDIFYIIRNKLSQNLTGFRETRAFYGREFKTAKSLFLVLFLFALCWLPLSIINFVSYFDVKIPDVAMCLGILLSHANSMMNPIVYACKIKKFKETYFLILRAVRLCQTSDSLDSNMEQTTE

wild-type C57BL/6J mice [1] = test: Hypothermia (Tb by telemetry) after ip dosing; format: in vivo, mouse; conditions: average from dosing to 60 min, mean±SD
Method: (§1) Compounds were dosed ip. Tb and activity were measured by telemetry and the averages from dosing to 60 min were calculated. […] Data are for the highest dose used and are mean±SD from 3 to 22 mice/group (usually 5-7). P values are unpaired t-Test vs vehicle-treated controls assayed simultaneously. Vehicle data are mean±SD from all (n=83) vehicle treated mice.

wild-type C57BL/6J mice [2] = test: Locomotor activity by telemetry after ip dosing; format: in vivo, mouse; conditions: average from dosing to 60 min, mean±SD
Method: as §1

hA1AR = biological target: T3, hA1AR (Homo sapiens, UniProt P30542); test: Radioligand binding in membranes of CHO cells expressing hA1AR, [3H]N6-R-phenylisopropyladenosine; conditions: read-out: A1AR % inhibition or Ki; for Ki: (h)
T3 construct: expressed in transfected cells; host or cells: CHO
T3 sequence (P30542 1-326): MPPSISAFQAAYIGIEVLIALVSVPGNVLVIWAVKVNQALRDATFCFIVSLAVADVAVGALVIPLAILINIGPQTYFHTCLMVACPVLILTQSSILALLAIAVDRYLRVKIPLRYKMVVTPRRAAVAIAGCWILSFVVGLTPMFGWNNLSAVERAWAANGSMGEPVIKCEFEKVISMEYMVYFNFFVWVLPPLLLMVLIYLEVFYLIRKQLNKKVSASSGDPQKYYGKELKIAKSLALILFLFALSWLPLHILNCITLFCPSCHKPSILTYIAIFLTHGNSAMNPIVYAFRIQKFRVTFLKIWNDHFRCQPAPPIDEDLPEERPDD

hA2AAR = biological target: T4, hA2AAR (Homo sapiens, UniProt P29274); test: Radioligand binding in membranes of HEK293 cells expressing hA2AAR; conditions: read-out: A2AAR % inhibition; for Ki: (h), values without % sign (Ki)
T4 construct: expressed in transfected cells; host or cells: HEK293

hA3AR = biological target: T5, hA3AR (Homo sapiens, UniProt P0DMS8); test: Radioligand binding in membranes of CHO cells expressing hA3AR; conditions: read-out: A3AR % inhibition or Ki; for Ki: (h)
T5 construct: expressed in transfected cells; host or cells: CHO
T5 sequence (P0DMS8 1-318): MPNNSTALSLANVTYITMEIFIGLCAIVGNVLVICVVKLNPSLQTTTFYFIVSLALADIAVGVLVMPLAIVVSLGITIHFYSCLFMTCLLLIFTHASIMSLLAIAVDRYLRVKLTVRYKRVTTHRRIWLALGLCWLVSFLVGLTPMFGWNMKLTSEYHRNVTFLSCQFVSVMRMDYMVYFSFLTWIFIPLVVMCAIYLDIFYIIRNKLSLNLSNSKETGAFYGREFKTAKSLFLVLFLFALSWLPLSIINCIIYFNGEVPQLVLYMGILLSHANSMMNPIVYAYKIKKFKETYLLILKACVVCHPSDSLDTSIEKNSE

sigma receptor σ1 = sigma receptor σ1 (Homo sapiens, UniProt Q99720); test: Off-target interaction determined by the PDSP; format: binding; conditions: read-out: Off-target, receptor (h, unless noted) (Ki, μM): σ1
serotonin receptor 5HT2B = serotonin receptor 5HT2B (Homo sapiens, UniProt P41595); test: Off-target interaction determined by the PDSP; format: binding; conditions: read-out: Off-target, receptor (h, unless noted) (Ki, μM): 5HT2B
[3] = biological target: TSPO (translocator protein) (UniProt P30536); test: Off-target interaction determined by the PDSP; format: binding, human; conditions: for Ki: read-out: Off-target, receptor (h, unless noted) (Ki, μM): TSPO
sigma receptor σ2 = sigma receptor σ2 (UniProt Q5BJF2); test: Off-target interaction determined by the PDSP; format: binding, human; conditions: read-out: Off-target, receptor (h, unless noted) (Ki, μM): σ2
serotonin receptor 5HT2C = biological target: T6, serotonin receptor 5HT2C (Homo sapiens, UniProt P28335); test: Off-target interaction determined by the PDSP; format: binding; conditions: read-out: Off-target, receptor (h, unless noted) (Ki, μM): 5HT2C
T6 sequence (P28335 33-458): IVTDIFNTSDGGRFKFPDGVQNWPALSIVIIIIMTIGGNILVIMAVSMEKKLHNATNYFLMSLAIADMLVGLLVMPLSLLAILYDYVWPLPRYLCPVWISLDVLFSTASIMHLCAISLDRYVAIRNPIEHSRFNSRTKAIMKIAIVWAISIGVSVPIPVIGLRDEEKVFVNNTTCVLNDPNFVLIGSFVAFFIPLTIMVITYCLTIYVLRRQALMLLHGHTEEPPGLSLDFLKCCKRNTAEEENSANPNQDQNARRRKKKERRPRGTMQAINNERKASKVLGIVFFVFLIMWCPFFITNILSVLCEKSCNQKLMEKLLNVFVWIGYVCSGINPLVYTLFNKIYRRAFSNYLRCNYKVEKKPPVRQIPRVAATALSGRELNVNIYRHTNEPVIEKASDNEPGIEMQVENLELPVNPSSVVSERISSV

[4] = test system: off-target receptors (PDSP); test: Off-target interactions determined by the PDSP, whole screen; format: binding, human; conditions: no off-target interaction listed
mA2AAR = mA2AAR (Mus musculus, UniProt Q60613); test: Adenosine receptor binding, mA2AAR; conditions: read-out: A2AAR % inhibition (converted)
[5] = (m), Ki, read-out: A1AR % inhibition or Ki (converted)

T4 sequence (P29274 whole entry): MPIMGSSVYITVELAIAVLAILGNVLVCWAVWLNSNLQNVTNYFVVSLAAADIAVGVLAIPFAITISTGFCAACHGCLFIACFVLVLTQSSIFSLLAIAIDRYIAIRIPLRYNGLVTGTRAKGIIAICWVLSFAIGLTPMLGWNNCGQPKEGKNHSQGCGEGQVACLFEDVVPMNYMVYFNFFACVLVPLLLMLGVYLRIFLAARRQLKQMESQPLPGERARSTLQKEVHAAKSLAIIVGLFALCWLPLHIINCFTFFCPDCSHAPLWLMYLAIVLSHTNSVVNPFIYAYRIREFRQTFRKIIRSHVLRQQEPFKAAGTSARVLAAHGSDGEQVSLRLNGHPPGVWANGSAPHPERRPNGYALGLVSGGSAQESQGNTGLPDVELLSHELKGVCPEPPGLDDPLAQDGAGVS
Sequence of serotonin receptor 5HT2B (P41595 whole entry): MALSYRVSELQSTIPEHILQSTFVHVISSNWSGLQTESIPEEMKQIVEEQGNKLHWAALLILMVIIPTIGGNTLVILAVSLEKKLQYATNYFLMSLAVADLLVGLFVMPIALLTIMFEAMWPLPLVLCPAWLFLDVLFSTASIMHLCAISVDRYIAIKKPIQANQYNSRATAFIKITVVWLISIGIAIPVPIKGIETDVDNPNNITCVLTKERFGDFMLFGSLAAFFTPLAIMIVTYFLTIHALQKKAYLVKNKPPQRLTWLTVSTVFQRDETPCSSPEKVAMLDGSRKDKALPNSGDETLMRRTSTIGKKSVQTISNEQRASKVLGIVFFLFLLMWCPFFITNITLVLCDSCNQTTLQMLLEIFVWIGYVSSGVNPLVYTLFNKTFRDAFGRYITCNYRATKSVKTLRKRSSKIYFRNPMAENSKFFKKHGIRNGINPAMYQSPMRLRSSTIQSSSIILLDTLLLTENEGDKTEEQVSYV
Sequence of sigma receptor σ1 (Q99720 whole entry): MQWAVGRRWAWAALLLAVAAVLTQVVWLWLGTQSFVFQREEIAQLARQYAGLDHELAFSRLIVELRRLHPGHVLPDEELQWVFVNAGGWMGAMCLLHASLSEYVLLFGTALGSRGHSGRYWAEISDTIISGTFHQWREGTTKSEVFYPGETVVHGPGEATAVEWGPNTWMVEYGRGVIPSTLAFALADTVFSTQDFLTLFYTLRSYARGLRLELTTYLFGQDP
Sequence of mA2AAR (Q60613 whole entry): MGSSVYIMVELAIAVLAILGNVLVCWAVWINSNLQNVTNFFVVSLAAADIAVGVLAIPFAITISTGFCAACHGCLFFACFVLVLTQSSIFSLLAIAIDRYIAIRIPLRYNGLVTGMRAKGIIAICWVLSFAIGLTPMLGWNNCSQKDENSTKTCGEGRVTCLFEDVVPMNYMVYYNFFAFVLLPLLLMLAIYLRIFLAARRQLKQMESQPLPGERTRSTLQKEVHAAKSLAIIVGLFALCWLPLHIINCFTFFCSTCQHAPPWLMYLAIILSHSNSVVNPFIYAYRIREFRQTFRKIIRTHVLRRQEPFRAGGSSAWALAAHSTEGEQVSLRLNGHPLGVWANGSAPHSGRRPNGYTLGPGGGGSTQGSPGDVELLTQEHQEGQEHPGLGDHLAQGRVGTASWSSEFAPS

Compound	Ki (hA1AR) [µM]	Ki (hA2AAR) [µM]	Ki (hA3AR) [µM]	inhibition at 10 µM (hA2AAR) [%]	Ki (mA1AR; [5]) [µM]	Ki (mA3AR) [µM]	further results
O[C@@H]1[C@H](O)[C@@H](CCl)O[C@H]1n1cnc2c(NC3CC4CCC3C4)ncnc21 (some centres unmarked) [Compound 4, reference compound]					0.0002	2.41	Tb (° C.) (wild-type C57BL/6J mice [1]; 3 mg/kg ip): 32.2 ± 1.3 °C; Activity (counts) (wild-type C57BL/6J mice [2]; 3 mg/kg ip): 2.8 ± 1.6 counts
CNC(=O)[C@@]12C[C@@H]1[C@@H](n1cnc3c(NC4CCCC4)nc(Cl)nc31)[C@H](O)[C@@H]2O [Compound 6e, reference compound]	0.0183 ± 0.0063	3.25 ± 0.3	0.0037 ± 0.0009		0.00068	0.00346 ± 0.00013	Ki (sigma receptor σ1): 1.55 µM; Ki (serotonin receptor 5HT2B): 0.012 µM
O[C@@H]1[C@H](O)[C@@H]2C[C@@H]2[C@H]1n1cnc2c(NC(C3CC3)C3CC3)nc(Cl)nc21 [Compound 7, reference compound]							Tb (° C.) (wild-type C57BL/6J mice [1]; 3 mg/kg ip): 33.4 ± 1.7 °C; Activity (counts) (wild-type C57BL/6J mice [2]; 3 mg/kg ip): 5.5 ± 4.1 counts
O[C@@H]1[C@H](O)[C@@H](CCl)O[C@H]1n1cnc2c(NC(C3CCC3)C3CCC3)ncnc21 [Compound 10, (2S,3S,4R,5R)-2-(Chloromethyl)-5-(6-((dicyclobutylmethyl)amino)-9H-purin-9-yl)tetrahydrofuran-3,4-diol]	0.0049 ± 0.00087	5.2	16.6		0.00071	2.11	Ki [3]: 3.98 µM; Ki (sigma receptor σ1): 0.69 µM; Ki (sigma receptor σ2): 0.662 µM; Tb (° C.) (wild-type C57BL/6J mice [1]; 10 mg/kg ip): 35.8 ± 0.1 °C; Activity (counts) (wild-type C57BL/6J mice [2]; 10 mg/kg ip): 20.5 ± 4.6 counts
CCSC[C@H]1O[C@@H](n2cnc3c(NC(C4CCC4)C4CCC4)ncnc32)[C@H](O)[C@@H]1O [Compound 11, (2R,3R,4S,5S)-2-(6-((Dicyclobutylmethyl)amino)-9H-purin-9-yl)-5-((ethylthio)methyl)tetrahydrofuran-3,4-diol]	0.0634 ± 0.0121		6.22 ± 1.48	30 ± 5	0.00358	0.718	Off-target: TSPO (% inhib.) ([3]; footnote j not given): 90%; Ki (sigma receptor σ1): 0.626 µM; Ki (sigma receptor σ2): 0.642 µM
OC[C@H]1O[C@@H](n2cnc3c(NC(C4CCC4)C4CCC4)nc(Cl)nc32)[C@H](O)[C@@H]1O [Compound 12, (2R,3R,4R,5R)-2-(2-Chloro-6-((dicyclobutylmethyl)amino)-9H-purin-9-yl)-5-(hydroxymethyl)tetrahydrofuran-3,4-diol]	0.0178 ± 0.0087	2.55 ± 0.54	13.2			0.653	Ki (mA1AR; Table 7, repeats the binding tables, read-out: Binding Ki for mA1AR): 0.00065 µM; Ki (serotonin receptor 5HT2C): 1.45 µM
Nc1ncnc2c1ncn2[C@@H]1O[C@H](C(=O)O)[C@@H](O)[C@H]1O [Compound 14]				11 ± 4			inhibition at 10 µM (hA1AR): 24 ± 4%; inhibition at 10 µM (hA3AR): 32%; Ki (sigma receptor σ1): 1.48 µM; Ki (sigma receptor σ2): 0.796 µM
CCNC(=O)[C@H]1O[C@@H](n2cnc3c(N)ncnc32)[C@H](O)[C@@H]1O [Compound 16, reference compound]							Off-target, receptor (h, unless noted) [4]: none
Nc1ncnc2c1ncn2[C@@H]1O[C@H](C(=O)NCCO)[C@@H](O)[C@H]1O [Compound 18, reference compound]	0.0128	0.505 ± 0.03	9.45				
O[C@@H]1[C@H](O)[C@@H]2C[C@@H]2[C@H]1n1cnc2c(NC(C3CCC3)C3CCC3)nc(Cl)nc21 [Compound 19]				46 ± 6			Ki [3]: 2.38 µM

Second part, led by results:

Ki (hA1AR) [µM]	Ki (hA2AAR) [µM]	Ki (hA3AR) [µM]	inhibition at 10 µM (hA2AAR) [%]	Compound	Ki (mA1AR; [5]) [µM]	Ki (mA3AR) [µM]	further results
0.00761 ± 0.00073	1.75 ± 0.29	0.253 ± 0.148		Nc1nc(Cl)nc2c1ncn2[C@H]1[C@H](O)[C@H](O)[C@]2(CCl)C[C@H]12 [Compound 22]			Ki (sigma receptor σ1): 1.97 µM; Ki (sigma receptor σ2): 2.55 µM
		9.75 ± 4.03	22 ± 5	O[C@H]1[C@H](n2cnc3c(NC(C4CCC4)C4CCC4)nc(Cl)nc32)[C@H]2C[C@@]2(CSc2ccccc2F)[C@H]1O [Compound 28, (1S,2R,3S,4R,5S)-4-(2-Chloro-6-((dicyclobutylmethyl)amino)-9H-purin-9-yl)-1-(((2-fluorophenyl)thio)methyl)bicyclo[3.1.0]hexane-2,3-diol]	2.49	7.44	inhibition at 10 µM (hA1AR): 45 ± 4%; inhibition at 10 µM (mA2AAR): 20%; Ki (sigma receptor σ2): 0.583 µM; Ki (serotonin receptor 5HT2C): 1.46 µM; Ki (serotonin receptor 5HT2B): 0.334 µM
0.36 ± 0.074		0.236 ± 0.041		CCOC(=O)[C@@]12C[C@@H]1[C@@H](n1cnc3c(NC(C4CC4)C4CC4)nc(Cl)nc31)[C@H](O)[C@@H]2O [Compound 32]			Ki (serotonin receptor 5HT2C): 0.054 µM; Ki (serotonin receptor 5HT2B): 0.015 µM
			15 ± 2	CCOC(=O)[C@@]12C[C@@H]1[C@@H](n1cnc3c(NC(C4CC4)C4CC4)nc(Cl)nc31)[C@@H]1OC(C)(C)O[C@@H]12 [Compound 33]			inhibition at 10 µM (hA1AR): 49 ± 9%; inhibition at 10 µM (hA3AR): 41 ± 6%
0.11 ± 0.014	4.32 ± 1.87	0.034 ± 0.011		CNC(=O)[C@@]12C[C@@H]1[C@@H](n1cnc3c(NC(C4CC4)C4CC4)nc(Cl)nc31)[C@H](O)[C@@H]2O [Compound 34]			Ki (serotonin receptor 5HT2C): 0.749 µM; Ki (serotonin receptor 5HT2B): 0.023 µM
0.00122 ± 5e-05	0.52 ± 0.119	0.059 ± 0.0178		O=C(NC1CC1)[C@@]12C[C@@H]1[C@@H](n1cnc3c(N[C@H]4C[C@H]5CC[C@@H]4C5)nc(Cl)nc31)[C@H](O)[C@@H]2O [Compound 36, (1S,2R,3S,4R,5S)-4-(6-(((1R,2S,4S)-bicyclo[2.2.1]heptan-2-yl)amino)-2-chloro-9H-purin-9-yl)-N-cyclopropyl-2,3-dihydroxybicyclo[3.1.0]hexane-1-carboxamide]	0.00045	0.0295	Ki (mA2AAR; (m), values without % sign (Ki)): 2.65 µM; Ki (serotonin receptor 5HT2B): 1.57 µM
			23 ± 6	NC(=O)c1ncn([C@@H]2O[C@H](CO)[C@@H](O)[C@H]2O)n1 [Compound 38, ribavirin, reference compound]			inhibition at 10 µM (hA3AR): 16 ± 5%
